Reference: ChEMBL document CHEMBL1201862, “PubChem BioAssay data set” (2004)
Activity calls are given as the source filed them.

Tests used:
[1] = IC50 of insulin release inhibition, rat insulinoma INS-1E line, 5 mM glucose, cell-based (AID 1117331); format: functional
Protein Tat = Protein Tat (Human immunodeficiency virus type 1 group M subtype B (isolate HXB2)(HIV-1), UniProt P04608); format: functional;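 also: tat binding to TAR RNA read out by fluorescence polarization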
Vero [2] = experiment: viability of Vero cells under compound – cytotoxicity control for flavivirus capping enzyme inhibitors (AID 588742); format: functional; conditions: Chlorocebus sabaeus
[3] = molecular target: Heat shock protein HSP 90-alpha (Homo sapiens, UniProt P07900); experiment: Luminescence-based dose response biochemical high throughput screening assay for inhibitors of the Heat Shock Protein 90 (HSP90). [Related pubchem assays: 1831 (Summary AID.), 1846 (Confirmation screen.), 1789 (Primary screen.)]
Protein skinhead-1 = molecular target: T1, Protein skinhead-1 (Caenorhabditis elegans, UniProt P34707); format: functional
T1 sequence (P34707 whole entry): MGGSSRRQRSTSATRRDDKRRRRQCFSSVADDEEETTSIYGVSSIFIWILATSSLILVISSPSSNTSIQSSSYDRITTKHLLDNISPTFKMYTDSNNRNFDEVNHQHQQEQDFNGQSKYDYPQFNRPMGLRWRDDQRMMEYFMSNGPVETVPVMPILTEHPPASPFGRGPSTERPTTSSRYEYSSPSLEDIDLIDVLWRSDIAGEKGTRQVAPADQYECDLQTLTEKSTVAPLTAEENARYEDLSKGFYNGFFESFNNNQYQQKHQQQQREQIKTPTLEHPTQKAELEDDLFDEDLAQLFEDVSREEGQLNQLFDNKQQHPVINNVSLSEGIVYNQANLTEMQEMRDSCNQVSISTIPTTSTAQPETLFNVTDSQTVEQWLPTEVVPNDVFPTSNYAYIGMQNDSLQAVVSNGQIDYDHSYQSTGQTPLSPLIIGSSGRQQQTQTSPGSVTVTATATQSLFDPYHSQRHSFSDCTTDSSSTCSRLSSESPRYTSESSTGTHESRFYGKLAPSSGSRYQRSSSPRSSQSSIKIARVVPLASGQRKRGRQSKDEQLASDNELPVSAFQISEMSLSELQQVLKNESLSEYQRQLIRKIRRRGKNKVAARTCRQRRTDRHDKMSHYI

Heat shock protein HSP90 = Heat shock protein HSP90 (Homo sapiens, UniProt P07900+P08238); experiment: Hsp90 blockade concentration-response – dose response (AID 712); format: functional
Protein RecA = molecular target: T2, Protein RecA (Mycobacterium tuberculosis, UniProt P9WHJ3); experiment: Fluorescence Cell-Free Homogeneous Dose Retest to Identify Inhibitors of RecA-Intein Splicing Activity. [Related pubchem assays (depositor defined):AID2097, AID2223, AID489010, AID492950]; format: functional
T2 sequence (P9WHJ3 whole entry): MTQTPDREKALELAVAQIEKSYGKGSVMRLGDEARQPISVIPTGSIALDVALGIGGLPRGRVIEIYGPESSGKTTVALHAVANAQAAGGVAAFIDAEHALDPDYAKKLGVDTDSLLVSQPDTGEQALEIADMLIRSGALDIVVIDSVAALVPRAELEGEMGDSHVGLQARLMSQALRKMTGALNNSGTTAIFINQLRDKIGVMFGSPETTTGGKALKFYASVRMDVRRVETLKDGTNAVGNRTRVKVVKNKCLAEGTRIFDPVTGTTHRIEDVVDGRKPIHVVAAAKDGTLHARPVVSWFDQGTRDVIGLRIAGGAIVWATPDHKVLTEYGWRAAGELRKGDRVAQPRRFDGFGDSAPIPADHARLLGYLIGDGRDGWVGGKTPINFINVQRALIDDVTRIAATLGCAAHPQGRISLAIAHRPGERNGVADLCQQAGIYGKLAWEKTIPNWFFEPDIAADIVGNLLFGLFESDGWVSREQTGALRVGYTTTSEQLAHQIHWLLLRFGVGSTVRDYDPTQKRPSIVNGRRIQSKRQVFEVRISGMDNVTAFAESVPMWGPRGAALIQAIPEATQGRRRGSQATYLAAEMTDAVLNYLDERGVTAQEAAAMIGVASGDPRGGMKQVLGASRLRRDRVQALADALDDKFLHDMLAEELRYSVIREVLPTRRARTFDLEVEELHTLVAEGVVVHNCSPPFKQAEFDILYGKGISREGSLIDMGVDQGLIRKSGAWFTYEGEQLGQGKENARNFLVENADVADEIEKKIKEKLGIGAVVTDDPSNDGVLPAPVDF

[4] = molecular target: T3, Mannose-6-phosphate isomerase (Homo sapiens, UniProt P34949); experiment: MPI inhibition at elevated mannose 6-phosphate – biochemical, fluorescence intensity, high mannose 6-phosphate, primary screen (AID 1220)
T3 sequence (P34949 whole entry): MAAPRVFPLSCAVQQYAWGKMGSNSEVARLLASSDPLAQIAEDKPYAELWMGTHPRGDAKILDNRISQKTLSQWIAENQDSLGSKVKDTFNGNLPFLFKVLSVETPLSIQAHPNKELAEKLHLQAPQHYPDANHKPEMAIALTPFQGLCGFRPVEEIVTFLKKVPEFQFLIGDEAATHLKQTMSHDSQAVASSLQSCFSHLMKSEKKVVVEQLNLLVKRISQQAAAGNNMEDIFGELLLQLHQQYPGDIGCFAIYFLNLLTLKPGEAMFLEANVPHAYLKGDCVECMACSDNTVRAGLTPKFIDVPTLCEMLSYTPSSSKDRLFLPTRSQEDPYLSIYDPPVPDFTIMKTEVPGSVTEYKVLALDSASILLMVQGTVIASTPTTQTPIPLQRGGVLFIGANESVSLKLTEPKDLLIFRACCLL

[5] = molecular target: T4, Replicative DNA helicase DnaB (Mycobacterium tuberculosis, UniProt P9WMR3); experiment: DnaB intein splicing inhibitors, dose response, biochemical, cell-free fluorescence (AID 449749); format: functional
T4 sequence (P9WMR3 whole entry): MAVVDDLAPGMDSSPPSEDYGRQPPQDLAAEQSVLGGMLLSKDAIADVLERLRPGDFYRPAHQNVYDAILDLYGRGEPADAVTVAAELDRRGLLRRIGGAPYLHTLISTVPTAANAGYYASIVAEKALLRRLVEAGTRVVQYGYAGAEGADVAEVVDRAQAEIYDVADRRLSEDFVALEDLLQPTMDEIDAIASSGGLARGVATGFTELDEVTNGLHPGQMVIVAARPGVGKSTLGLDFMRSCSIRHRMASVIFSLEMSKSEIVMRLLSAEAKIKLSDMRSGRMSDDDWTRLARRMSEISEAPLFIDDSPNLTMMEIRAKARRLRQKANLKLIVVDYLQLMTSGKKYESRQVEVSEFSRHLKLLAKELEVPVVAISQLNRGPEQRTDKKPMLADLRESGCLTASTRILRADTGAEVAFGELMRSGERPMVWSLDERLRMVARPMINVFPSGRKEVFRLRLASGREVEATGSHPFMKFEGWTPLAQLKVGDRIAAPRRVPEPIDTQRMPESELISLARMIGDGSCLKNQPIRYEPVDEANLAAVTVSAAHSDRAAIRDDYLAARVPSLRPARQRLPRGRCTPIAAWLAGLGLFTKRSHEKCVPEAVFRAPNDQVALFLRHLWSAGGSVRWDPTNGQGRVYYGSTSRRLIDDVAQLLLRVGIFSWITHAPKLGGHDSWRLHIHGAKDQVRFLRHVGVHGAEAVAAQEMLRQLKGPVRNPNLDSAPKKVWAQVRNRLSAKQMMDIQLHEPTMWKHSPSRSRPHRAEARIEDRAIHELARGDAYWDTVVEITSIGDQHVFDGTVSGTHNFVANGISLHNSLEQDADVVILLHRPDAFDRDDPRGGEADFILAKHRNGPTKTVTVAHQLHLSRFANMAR

Vero [6] = experiment: inhibition of WNV-induced cytopathic effect – cell-based, CPE readout (AID 1621); format: functional; conditions: Chlorocebus sabaeus
[7] = NIH3T3 cell viability loss – ATP luminescence, mouse fibroblasts, counter-screen, dose response (AID 2010); format: functional, cell-based;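 also: cells exposed to compound for about 90 hours before reading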
[8] = Trypanosoma cruzi growth suppression in host cells – NIH3T3 host cells, beta-gal luminescence, confirmation (AID 2044); format: functional, cell-based;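 also: intracellular parasites grown in NIH/3T3 mouse fibroblasts as host cells; luminescent beta-galactosidase reporter signal from transgenic T. cruzi replicating inside host cells; inhibitors lower the luminescence signal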

Protein Tat, sequence (P04608 whole entry): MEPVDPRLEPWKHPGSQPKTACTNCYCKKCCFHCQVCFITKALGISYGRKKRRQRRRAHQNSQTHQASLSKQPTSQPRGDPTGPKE

## CN1CCN(CCC(=O)N2c3ccccc3Sc3ccc(C(F)(F)F)cc32)CC1 [FTORMETAZINE]
[1]
  IC50: > 11.1 µM (inactive)

## COC(=O)C1=C(O)/C(=C\c2ccc(CNC(=O)C(=O)Nc3ccc(C)cc3)o2)N=C1C
Protein Tat
  IC50: 22.5 µM (inconclusive)
Vero [2]
  CC50: 19 µM (active)

## Cc1oc(-c2ccc(-c3ccccc3)cc2)nc1CN(C)C1CCOC1 (stereo not drawn)
[3]
  IC50: 235 nM (active)
Protein skinhead-1
  IC50: 13.7 µM (active)

## Oc1ccc(/C=N/c2ccc3ncccc3c2)c(O)c1
Heat shock protein HSP90
  IC50: > 50 µM
Protein RecA
  EC50: 29 µM (active)
[4]
  IC50: > 50 µM (not active)
[5]
  AC50: 11.5 µM (active)

## CCN1CCN(c2ccc(S(=O)(=O)N3CCCCC3)cc2NC(=O)Cc2c(Cl)cccc2Cl)CC1
Vero [6]
  IC50: 27.1 µM (active)
cells
  EC50: 60 nM (active)
[7]
  EC50: 49.2 µM (active)
[8]
  EC50: < 100 nM (active)
